According to patent publication US20100260691A1, “Aqueous compositions containing a hydrophobic material” (priority 2006, published 2010):
Values belong to the molecule of their own block, whether it stands above or below them.

Assays:
[1] = Critical micelle concentration by surface tension; format: physicochemical; details: in water
Description: Suitable polymer is selected by first determining the surface tension concentration profile of the surfactant and evaluating the CMC. This is done by preparing standard solutions of the surfactant in water at different concentration and dilutions and measuring surface tension of the solutions and plotting the data as shown in FIG. 1. Surface tension may be measured using a typical Tensiometer [DuNuoy Tensiometer, Surface Tensiomat, Fisher with a platinum ring with a mean circumference of 6 cm, and a ring/wire radius ratio of 53.8. As an example: starting with 1% solution of a typical surfactant like SDS, serial dilutions are made by diluting appropriate amounts of the 1% stock solution and diluting to 0.5%, 0.2%, 0.1% and 0.05, 0.02, 0.01, 0.005, 0.002, by adding appropriate amounts of de-ionized water to a weighed quantity of the stock solution. FIG. 1 is a plot of concentration in moles per liter of the SDS and surface tension at 25° C.

[2] = cited from earlier work
[3] = Particle size by Dynamic Light Scattering; format: physicochemical; details: active in SDS/PVP K-30 aqueous systems and dilutions
Description: The hydrophobic material is present in the composition as an emulsion or a dispersion. The particle size of the hydrophobic material in the composition typically falls within the range of from about 5 to 1000 nm, more particularly from about 5 to 500 nm, still more particularly from about 10 to 100 nm and in accordance with certain embodiments from about 10 to 30 nm. Particle size refers to average particle radius and can be determined using dynamic light scattering techniques and equipment known to those of skill in the art. The compositions in accordance with certain aspects of the invention are visually clear due primarily to the small particle size of the hydrophobic material. Optical clarity can be measured using a turbidimeter or nephelometer.

[4] = Solubility / solubilization of Triclosan in water and SDS solutions; format: physicochemical; details: SDS alone, no PVP
Method: This concentrate was serially diluted at 3/10, 2.5/10, 2/10, 1.5/10, 1/10, 0.8/10, 0.6/10, 0.4/10 with water. […] Minimum amount of SDS required to solubilize 0.075%-0.09% Triclosan was ˜0.4-0.5% range SDS. This corresponds to about two-three times the CMC for SDS, which was determined to be about 0.17%.

[5] = Visual clarity of aqueous concentrate and dilutions; format: physicochemical; details: for appearance of dilutions with water: dilution ratios as stated in each example; for appearance / dissolution of the aqueous concentrate: undiluted composition as prepared
Description: FIG. 2 summarizes a method that can be used for optimization. Once the components are identified, optimization may be performed by preparing several mixtures of the components in different ratios and observing the phase behavior. Plot the compositions producing clear systems for concentrate and dilutions and identify regions in the triangular composition space. For a fixed amount of the hydrophobic material or active ingredient, vary the ratios of the surfactant and polymer in water. Alternately, vary the concentration of the hydrophobic material or active ingredient, polymer and surfactant in different ratio and make up to 100% in water and plot the compositions providing clear systems for the concentrate and for dilutions.

CMC [1]: about 0.17%
SMILES: CCCCCCCCCCCCOS(=O)(=O)[O-].[Na+] [SDS, sodium dodecylsulfate]

SMILES: Oc1cc(Cl)ccc1Oc1ccc(Cl)cc1Cl [Triclosan]
solubility in water [2]: 10 ppm
particle size (radius) [3]: 10-30 nm
Minimum amount of SDS required to solubilize 0.075%-0.09% Triclosan [4]: 0.4-0.5 % SDS
Minimum amount of SDS to solubilize 0.3% Triclosan in water [4]: ~2 % SDS
level of SDS required to solubilize 3% Triclosan [4]: 25%

appearance of dilutions with water [5]: clear solutions
appearance / dissolution of the aqueous concentrate [5]: clear solutions
SMILES: CCOC(=O)c1ccc(O)cc1 [ethylparaben]

appearance of dilutions with water [5]: clear solutions
appearance / dissolution of the aqueous concentrate [5]: clear solutions
SMILES: COC(=O)c1ccc(O)cc1 [methylparaben]
